Consider eleven compounds from patent US9309242B2, “Substituted pyrido[2,3-b]pyrazines as FGFR kinase inhibitors” (priority 2011, dated 2016).

The target in this assay is T1, Ba/F3-Flt3-transfected cells (Homo sapiens, UniProt P36888, cells depend on it, form not given).
T1 construct: BAF3-FLT3 (MIN IL3) pIC50; other: minus IL3
T1 sequence (P36888 1-993): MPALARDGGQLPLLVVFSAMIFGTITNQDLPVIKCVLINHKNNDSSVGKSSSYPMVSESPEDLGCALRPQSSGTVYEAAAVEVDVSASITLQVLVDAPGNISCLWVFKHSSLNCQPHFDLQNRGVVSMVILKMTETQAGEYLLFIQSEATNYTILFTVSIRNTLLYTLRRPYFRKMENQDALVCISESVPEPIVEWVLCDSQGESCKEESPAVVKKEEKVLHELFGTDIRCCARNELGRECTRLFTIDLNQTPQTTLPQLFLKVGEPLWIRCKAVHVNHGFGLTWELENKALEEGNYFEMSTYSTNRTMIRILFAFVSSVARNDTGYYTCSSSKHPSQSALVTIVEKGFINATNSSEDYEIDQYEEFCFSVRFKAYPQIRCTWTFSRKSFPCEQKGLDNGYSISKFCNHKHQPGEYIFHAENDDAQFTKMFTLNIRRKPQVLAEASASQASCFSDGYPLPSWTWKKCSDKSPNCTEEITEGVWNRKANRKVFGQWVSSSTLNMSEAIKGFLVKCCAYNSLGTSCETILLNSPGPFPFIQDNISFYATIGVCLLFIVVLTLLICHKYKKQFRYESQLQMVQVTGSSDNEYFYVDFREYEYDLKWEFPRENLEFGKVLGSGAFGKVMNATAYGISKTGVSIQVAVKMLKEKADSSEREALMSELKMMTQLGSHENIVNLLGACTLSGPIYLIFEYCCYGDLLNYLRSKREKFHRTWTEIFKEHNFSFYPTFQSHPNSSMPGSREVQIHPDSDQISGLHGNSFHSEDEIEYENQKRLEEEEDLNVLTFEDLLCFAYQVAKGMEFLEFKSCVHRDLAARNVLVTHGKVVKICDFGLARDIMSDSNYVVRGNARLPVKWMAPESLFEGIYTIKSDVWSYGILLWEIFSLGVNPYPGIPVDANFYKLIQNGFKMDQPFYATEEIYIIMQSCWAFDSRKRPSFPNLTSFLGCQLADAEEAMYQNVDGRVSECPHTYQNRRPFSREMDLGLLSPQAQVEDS
In words: Ba/F3-Flt3 (minus IL3) cellular proliferation assay, Alamar Blue. Type of assay: cell-based. The method, then: Ba/F3-Flt3 (Minus IL3 or Plus IL3) (Cellular Proliferation Assay)
In a 384 well plate, 100 nl of compound dilution in DMSO was sprayed before adding 50 μl cell culture medium (phenol red free RPMI-1640, 10% FBS, 2 mM L-Glutamine and 50 μg/ml Gentamycin) containing 20000 cells per well of Ba/F3-Flt3-transfected cells. Cells were put in an incubator at 37° C. and 5% CO2. After 24 hours, 10 μl of Alamar Blue solution (0.5 mM K3Fe(CN)6, 0.5 mM K4Fe(CN)6, 0.15 mM Resazurin and 100 mM Phosphate Buffer) was added to the wells, incubated for 4 hours at 37° C. and 5% CO2 before RFU's (Relative Fluorescence Units) (ex. 540 nm., em. 590 nm.) were measured in a fluororescence plate reader. […]
On the technique in general: Resazurin is reduced to fluorescent resorufin, in cell work by metabolically active cells.
For `COc1cc(OC)c(F)c(N(CCCO)c2ccc3ncc(-c4cnn(C)c4)nc3n2)c1F` (single isomer, unassigned) [Compound 16], the “BAF3-FLT3 (MIN IL3) pIC50” value turned out to be 5.18.
For the compound `COCC(O)CN(c1cc(OC)cc(OC)c1)c1ccc2ncc(-c3cnn(C)c3)nc2n1` (centres unmarked) [Compound 7], the “BAF3-FLT3 (MIN IL3) pIC50” value is on record as <5.
As for `COc1cc(OC)c(F)c(N(Cc2ncccn2)c2ccc3ncc(-c4cnn(C)c4)nc3n2)c1` [Compound 9], the “BAF3-FLT3 (MIN IL3) pIC50” value was <5.
With `COc1cc(OC)c(F)c(N(Cc2cnccn2)c2ccc3ncc(-c4cnn(C)c4)nc3n2)c1F` [Compound 10], the “BAF3-FLT3 (MIN IL3) pIC50” value was found to be 5.12.
For `COc1cc(OC)c(F)c(N(CCO)c2ccc3ncc(-c4cnn(C)c4)nc3n2)c1F` [Compound 20], the “BAF3-FLT3 (MIN IL3) pIC50” value is reported as 5.23.
As for `COc1cc(OC)cc(N(CC#Cc2ncccc2OC)c2ccc3ncc(-c4cnn(C)c4)nc3n2)c1` [Compound 26], the “BAF3-FLT3 (MIN IL3) pIC50” value is <5.
For `Cn1cc(-c2cnc3ccc(N(Cc4ncc[nH]4)c4cc(F)cc(F)c4)nc3n2)cn1` [Compound 27], the “BAF3-FLT3 (MIN IL3) pIC50” value is listed as <5.
To `COc1cc(OC)c(F)c(N(Cc2cn(S(=O)(=O)N(C)C)cn2)c2ccc3ncc(-c4cnn(C)c4)nc3n2)c1` [Compound 36] belongs <5; to `COc1cc(/N=c2\ccc3ncc(-c4cnn(C)c4)nc3n2CCNC(C)C)c(F)c(OC)c1` [Compound 37], <5.
For `CNCCn1/c(=N/c2cc(OC)cc(OC)c2F)ccc2ncc(-c3cnn(C)c3)nc21` [Compound 38], the “BAF3-FLT3 (MIN IL3) pIC50” value is listed as <5.
Under `CNCCN(c1ccc2ncc(-c3cnn(C)c3)nc2n1)c1cc(OC)cc(OC)c1F` [Compound 39] stands <5.
